According to US20240092803A1, “BRIDGED COMPOUNDS AS KRAS G12D INHIBITOR AND DEGRADER AND THE USE THEREOF” (BEIGENE SWITZERLAND GMBH, priority 2021, published 2024):

Experiments:
[1] = biological target: GST-tagged KRAS (amino acids 1-188) G12D binding to His-tagged SOS1 (Homo sapiens (Human), UniProt P01116, G12D); assay: KRAS G12D:SOS1 GDP TR-FRET assay; settings: GDP 10 μM; KRAS G12D 37.5 nM; SOS1 18 nM
Protocol: (§1) KRAS: SOS1 GDP TR-FRET Assay
(§2) This assay was used to identify compounds which competitively interact with the binding of KRAS protein to SOS1 in the presence of GDP. GST-tagged WT KRAS (amino acids 1-188), GST-tagged KRAS (amino acids 1-188) G12D and His- tagged SOS1 protein (amino acids 564-1049) was expressed in E. coli and purified. All protein and reaction solutions were prepared in assay buffer containing DPBS pH7.5, 0.1% BSA, and 0.05% Tween 20. Purified GST-tagged WT KRAS or KRAS G12D protein (37.5 nM final assay concentration) and GDP (Sigma, 10 μM final assay concentration) mixture, a serially diluted compound (top final concentration is 50 uM or 10 uM, 3-fold serially diluted, 10 points) and His-tagged SOS1 protein (18 nM final assay concentration) were added into the assay plates (384 well microplate, black, Corning) sequentially. Plates are incubated at 24° C. for 1 hr. Following the incubation, Mab Anti-6His-Tb cryptate (Cisbio) and Mab Anti GST-D2 (Cisbio) were added and further incubated at 24° C. for another 1 hr. The TR-FRET signals (ex337nm, em665nm/620nm) were read on BMG PHERAstar FSX instrument. The inhibition percentage of KRAS protein binding with SOS1 in presence of increasing concentrations of compounds was calculated based on the ratio of fluorescence at 665 nm to that at 620 nm. The IC50 value of each compound was calculated from fitting the data to the four-parameter logistic model by Dotmatics.

[2] = biological target: GST-tagged WT KRAS (amino acids 1-188) binding to His-tagged SOS1 (Homo sapiens (Human), UniProt P01116); assay: KRAS WT:SOS1 GDP TR-FRET assay; settings: GDP 10 μM; WT KRAS 37.5 nM; SOS1 18 nM
Protocol: as §1, §2

[3] = test system: pERK1/2(THR202/TYR204) level in AsPC-1 cells; assay: pERK assay (HTRF) in AsPC-1 cells; type: cell-based; settings: Homo sapiens, ASPC1, 2 h compound treatment
Protocol: AsPC-1 cell line was used in this study. Cells were maintained in RPMI-1640 supplemented with 10% fetal bovine serum (Thermo Fisher), 50 units/mL penicillin and streptomycin (Thermo Fisher) and kept at 37° C. in a humidified atmosphere of 5% CO2 in air. Cells were reinstated from frozen stocks that were laid down within 30 passages from the original cells purchased. 30000 cells per well were seeded into a 96-well plate and incubated overnight. Cells were treated with a 10-point dilution series. The final compound concentration is from 0 to 10 μM. After 2 h compound treatment, cells were lysed, and the pERK1/2(THR202/TYR204) level in the cell lysates was detected by HTRF kit (Cisbio). In brief, a total of 16 μl of cell lysate from each well of a 96-well plate was transferred to a 384-well white assay plate. Lysate from each well was incubated with 2 μL of Eu3+- cryptate (donor) labeled anti-phospho-ERK1/2 and 2 μL of D2 (acceptor) labeled anti-phospho-ERK1/2 antibodies (Cisbio) overnight in dark at room temperature. When donor and acceptor are in close proximity, excitation of the donor with laser triggers a Fluorescence Resonance Energy Transfer (FRET) towards the acceptor, which in turn fluoresces at 655 nm wavelength. FRET signals were measured using a PHERAstar FSX reader (BMG Labtech). IC50 determination was performed by fitting the curve of percent inhibition versus the log of the inhibitor concentration using Dotmatics.

[4] = biological target: KRAS G12D HiBiT in HEK293 KRAS-G12D NanoLuc cell pool (Homo sapiens (Human), UniProt P01116, G12D); assay: KRAS G12D NanoLuc assay; type: cell-based; settings: 24 h compound treatment
Protocol: HEK293 KRAS-G12D NanoLuc cell pool was used in this study. The cells were stable expressing KRAS G12D HiBiT and LgBiT. Cells were maintained in DMEM supplemented with 10% fetal bovine serum (Thermo Fisher), 50 units/mL penicillin and streptomycin (Thermo Fisher) and kept at 37° C. in a humidified atmosphere of 5% CO2 in air. Cells were reinstated from frozen stocks that were laid down within 30 passages from the cell pool was constructed. 20000 cells per well were seeded a 96-well White with Clear Flat bottom plate for 4 h. Cells were treated with a 10-point dilution series. The final compound concentration is from 0 to 10 μM. After 24 h compound treatment, added 20 μL of CellTiter-Fluor reagent (Promega) to plates, shook for 2 min, incubated at least 30 min in 37° C. Added 25 μL of NanoGlo Live cell reagent (Promega) to the same plate. shook by mini-shaker for 5 min. Measure Luminescence and Fluorescence (380-400nmEx/505nmEm) signals immediately using a PHERAstar FSX reader (BMG Labtech). DC50 determination was performed by fitting the curve of percent inhibition versus the log of the inhibitor concentration using Excel and GraphPad Prism 8.

GST-tagged WT KRAS (amino acids 1-188) binding to His-tagged SOS1, sequence (P01116 other isoform, or with tags, fused parts or gaps): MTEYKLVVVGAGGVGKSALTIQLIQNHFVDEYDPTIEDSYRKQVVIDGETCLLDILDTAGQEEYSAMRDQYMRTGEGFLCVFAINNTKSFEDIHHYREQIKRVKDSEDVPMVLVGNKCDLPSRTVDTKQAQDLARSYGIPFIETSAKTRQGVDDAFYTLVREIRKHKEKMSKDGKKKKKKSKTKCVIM
GST-tagged KRAS (amino acids 1-188) G12D binding to His-tagged SOS1, sequence (P01116 other isoform, or with tags, fused parts or gaps G12D): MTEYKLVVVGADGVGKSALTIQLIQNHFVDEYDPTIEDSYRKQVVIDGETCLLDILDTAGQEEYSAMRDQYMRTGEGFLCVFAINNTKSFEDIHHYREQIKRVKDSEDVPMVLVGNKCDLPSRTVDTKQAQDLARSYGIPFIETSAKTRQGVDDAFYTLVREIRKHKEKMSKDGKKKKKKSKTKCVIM
KRAS G12D HiBiT in HEK293 KRAS-G12D NanoLuc cell pool, sequence (P01116 other isoform, or with tags, fused parts or gaps G12D): as above

CN1CCC[C@H]1COc1nc2c(c(N3CC4CCC(C3)N4)n1)CCN(c1cccc3ccc(Cl)c(Cl)c13)C2 [Example 9]
IC50 [1]: 0.063 µM
IC50 [2]: > 10 µM
IC50 [3]: 9.93 µM

Cc1ncsc1-c1ccc([C@H](C)NC(=O)[C@@H]2C[C@@H](O)CN2C(=O)[C@@H](NC(=O)CCCCCCN2CCC[C@H]2COc2nc3c(c(N4CC5CCC(C4)N5)n2)CCN(c2cccc4cccc(Cl)c24)C3)C(C)(C)C)cc1 [Example 16]
DC50 [4]: 1 µM
Dmax [4]: 73%

Cc1cccc2cccc(N3CCc4c(nc(OC[C@@H]5CCCN5C)nc4N4CC5CC(C4)N5)C3)c12 [Example 8, 3-(7-(8-methylnaphthalen-1-yl)-2-(((S)-1-methylpyrrolidin-2-yl)methoxy)-5,6,7,8-tetrahydropyrido[3,4-d]pyrimidin-4-yl)-3,6-diazabicyclo[3.1.1]heptane]
IC50 [1]: 0.749 µM
IC50 [2]: > 10 µM

Cc1cccc2cccc(N3CCc4c(nc(OC[C@@H]5CCCN5C)nc4N4C5CCC4C(N)C5)C3)c12 (stereo partly drawn) [Example 2, 7-(7-(8-methylnaphthalen-1-yl)-2-(((S)-1-methylpyrrolidin-2-yl)methoxy)-5,6,7,8-tetrahydropyrido[3,4-d]pyrimidin-4-yl)-7-azabicyclo[2.2.1]heptan-2-amine]
IC50 [1]: 4.5 µM
IC50 [2]: 34.2 µM

Cc1cccc2cccc(N3CCc4c(nc(OC[C@@H]5CCCN5C)nc4N4CCNCC4)C3)c12 [Example 1, (S)-7-(8-methylnaphthalen-1-yl)-2-((1-methylpyrrolidin-2-yl)methoxy)-4-(piperazin-1-yl)-5,6,7,8-tetrahydropyrido[3,4-d]pyrimidine]
IC50 [1]: 22.7 µM
IC50 [2]: > 50 µM

Cc1cccc2cccc(N3CCc4c(nc(OC[C@@H]5CCCN5C)nc4N4CC5CCC4CN5)C3)c12 (stereo partly drawn) [Example 6, 2-(7-(8-methylnaphthalen-1-yl)-2-(((S)-1-methylpyrrolidin-2-yl)methoxy)-5,6,7,8-tetrahydropyrido[3,4-d]pyrimidin-4-yl)-2,5-diazabicyclo[2.2.2]octane]
IC50 [1]: 0.713 µM
IC50 [2]: > 50 µM

CO[C@@H]1C[C@@H](COc2nc3c(c(N4CC5CCC(C4)N5)n2)CCN(c2cccc4cccc(Cl)c24)C3)N(C)C1 [Example 14, 4-(3,8-diazabicyclo[3.2.1]octan-3-yl)-7-(8-chloronaphthalen-1-yl)-2-(((2S,4R)-4-methoxy-1-methylpyrrolidin-2-yl)methoxy)-5,6,7,8-tetrahydropyrido[3,4-d]pyrimidine]
IC50 [1]: 0.126 µM
IC50 [2]: > 10 µM
IC50 [3]: > 10 µM

CN1CCC[C@H]1COc1nc2c(c(N3CC4CCC(C3)N4)n1)CCN(c1cc(N)cc(Cl)c1C(F)(F)F)C2 [Example 12, 3-(4-(3,8-diazabicyclo[3.2.1]octan-3-yl)-2-(((S)-1-methylpyrrolidin-2-yl)methoxy)-5,8-dihydropyrido[3,4-d]pyrimidin-7(6H)-yl)-5-chloro-4-(trifluoromethyl)aniline]
IC50 [1]: 0.0098 µM
IC50 [2]: 2.39 µM
IC50 [3]: 1.95 µM

Cc1cccc2cccc(N3CCc4c(nc(OC[C@@H]5CCCN5C)nc4N4CC5CCC(C4)N5)C3)c12 [Example 5, 4-(3,8-diazabicyclo[3.2.1]octan-3-yl)-7-(8-methylnaphthalen-1-yl)-2-(((S)-1-methylpyrrolidin-2-yl)methoxy)-5,6,7,8-tetrahydropyrido[3,4-d]pyrimidine]
IC50 [1]: 0.118 µM
IC50 [2]: > 50 µM
IC50 [3]: > 10 µM

CN1CCC[C@H]1COc1nc2c(c(N3C4CCC3CNC4)n1)CCN(c1cccc3cccc(Cl)c13)C2 [Example 3, 4-(3,8-diazabicyclo[3.2.1]octan-8-yl)-7-(8-chloronaphthalen-1-yl)-2-(((S)-methylpyrrolidin-2-yl)methoxy)-5,6,7,8-tetrahydropyrido[3,4-d]pyrimidine]
IC50 [1]: 0.635 µM
IC50 [2]: > 50 µM

CN1CCC[C@H]1COc1nc2c(c(N3CC4CCC(C3)N4)n1)CCN(c1cc(O)cc3ccccc13)C2 [Example 10]
IC50 [1]: 0.022 µM
IC50 [2]: 6.21 µM

CN1CCC[C@H]1COc1nc2c(c(N3CC4CCC(C3)N4)n1)CCN(c1cccc3cccc(Cl)c13)C2 [Example 7, 4-(3,8-diazabicyclo[3.2.1]octan-3-yl)-7-(8-chloronaphthalen-1-yl)-2-(((S)-1-methylpyrrolidin-2-yl)methoxy)-5,6,7,8-tetrahydropyrido[3,4-d]pyrimidine]
IC50 [1]: 0.059 µM
IC50 [2]: 17.2 µM
IC50 [3]: 6.75 µM

Cc1cccc2cccc(N3CCc4c(nc(OC[C@@H]5CCCN5C)nc4N4CC5CC4CN5)C3)c12 (stereo partly drawn) [Example 4, 4-(2,5-diazabicyclo[2.2.1]heptan-2-yl)-7-(8-methylnaphthalen-1-yl)-2-(((S)-1-methylpyrrolidin-2-yl)methoxy)-5,6,7,8-tetrahydropyrido[3,4-d]pyrimidine]
IC50 [1]: 2.59 µM
IC50 [2]: > 50 µM

CN1C[C@H](F)C[C@H]1COc1nc2c(c(N3CC4CCC(C3)N4)n1)CCN(c1cccc3cccc(Cl)c13)C2 [Example 15, 4-(3,8-diazabicyclo[3.2.1]octan-3-yl)-7-(8-chloronaphthalen-1-yl)-2-(((2S,4R)-4-fluoro-1-methylpyrrolidin-2-yl)methoxy)-5,6,7,8-tetrahydropyrido[3,4-d]pyrimidine]
IC50 [1]: 0.041 µM
IC50 [2]: > 10 µM
IC50 [3]: 4.03 µM

CN1CCC[C@H]1COc1nc2c(c(N3CC4CCC(C3)N4)n1)CCN(c1cc(N)cc(Cl)c1Cl)C2 [Example 13]
IC50 [1]: 0.027 µM
IC50 [2]: > 10 µM
IC50 [3]: 4.1 µM

CN1CCC[C@H]1COc1nc2c(c(N3CC4CCC(C3)N4)n1)CCN(c1cccc3ccc(F)c(Cl)c13)C2 [Example 11]
IC50 [1]: 0.012 µM
IC50 [2]: 3.62 µM
IC50 [3]: 4.64 µM
